In patent US11434242B2, “Dopamine-b-hydroxylase inhibitors” (BIAL-PORTELA & Cª, S.A., priority 2017, dated 2022):

Experiments:
DβH = target: T1, DβH (Homo sapiens, UniProt P09172); test: DβH inhibition assay in SK-N-SH cellular homogenates (tyramine to octopamine); assay type: biochemical; conditions: SK-N-SH cell homogenate; for SKNSH (1 μM), activity in % of control: inhibitor 1 μM; for SKNSH (0.1 μM), activity in % of control: inhibitor 0.1 μM
T1 construct: cellular homogenate (75 μg total protein); host or cells: SK-N-SH cells (homogenate)
T1 sequence (P09172 1-617): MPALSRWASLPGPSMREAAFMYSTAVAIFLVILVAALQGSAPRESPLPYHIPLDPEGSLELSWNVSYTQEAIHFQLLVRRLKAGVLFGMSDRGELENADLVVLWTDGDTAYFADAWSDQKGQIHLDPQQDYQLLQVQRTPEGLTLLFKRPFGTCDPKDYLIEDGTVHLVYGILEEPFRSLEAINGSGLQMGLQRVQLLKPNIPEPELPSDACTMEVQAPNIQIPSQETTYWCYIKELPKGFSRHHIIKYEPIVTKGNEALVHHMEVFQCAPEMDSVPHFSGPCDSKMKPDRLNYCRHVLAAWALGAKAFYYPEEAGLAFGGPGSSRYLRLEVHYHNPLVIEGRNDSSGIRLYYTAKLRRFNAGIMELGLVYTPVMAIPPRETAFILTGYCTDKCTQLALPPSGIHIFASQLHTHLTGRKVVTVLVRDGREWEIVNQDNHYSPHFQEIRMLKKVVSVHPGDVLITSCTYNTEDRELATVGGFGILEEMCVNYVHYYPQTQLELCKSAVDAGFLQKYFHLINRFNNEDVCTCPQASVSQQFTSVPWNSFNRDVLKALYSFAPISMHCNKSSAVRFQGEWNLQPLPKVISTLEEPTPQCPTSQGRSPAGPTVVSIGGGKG

[1] = target: T2, Dopamine beta hydroxylase (Homo sapiens, UniProt P09172); test: Dopamine beta hydroxylase activity in human plasma; assay type: biochemical; conditions: for Plasma (0.1 μM), activity in % of control: inhibitor 0.1 μM; for Plasma (1 μM), activity in % of control: inhibitor 1 μM
T2 construct: 125 μl of plasma; tissue Instituto Português do Sangue Transplantação; host or cells: human plasma from healthy donors
T2 sequence (P09172 40-617 limits assumed): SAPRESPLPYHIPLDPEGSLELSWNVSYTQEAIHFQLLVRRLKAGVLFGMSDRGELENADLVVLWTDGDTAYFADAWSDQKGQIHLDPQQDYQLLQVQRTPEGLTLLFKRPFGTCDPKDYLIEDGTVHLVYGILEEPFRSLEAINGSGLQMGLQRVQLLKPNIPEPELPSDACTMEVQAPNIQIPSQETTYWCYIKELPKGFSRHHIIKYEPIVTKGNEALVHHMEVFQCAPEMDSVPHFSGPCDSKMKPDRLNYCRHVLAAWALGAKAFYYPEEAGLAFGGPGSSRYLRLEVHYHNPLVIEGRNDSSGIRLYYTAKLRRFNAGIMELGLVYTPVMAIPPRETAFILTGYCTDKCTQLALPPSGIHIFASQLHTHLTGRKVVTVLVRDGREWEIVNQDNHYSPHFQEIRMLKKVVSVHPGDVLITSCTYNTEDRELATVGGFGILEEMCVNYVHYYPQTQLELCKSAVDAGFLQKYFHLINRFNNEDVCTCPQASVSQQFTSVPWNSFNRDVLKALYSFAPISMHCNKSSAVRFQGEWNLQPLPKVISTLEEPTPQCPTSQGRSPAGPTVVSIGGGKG
Procedure, shortened: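 Octopamine production from tyramine over 45 min at 37° C, measured photometrically at 330 nm after SCX extraction and periodate oxidation against an octopamine standard curve, indicates plasma DβH activity. Compounds tested at final 10, 100 and 1000 nM in human plasma, pH 5.0 cofactor buffer, 10 min preincubation; results as % of control.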

Fc1ccc(F)c([C@]23C[C@H]2c2c(Cc4nnn[nH]4)[nH]c(=S)n2C3)c1 [Example 41, (5aS,6aR)-1-((1H-tetrazol-5-yl)methyl)-5a-(2,5-difluorophenyl)-5,5a,6,6a-tetrahydrocyclopropa[3,4]pyrrolo[1,2-c]imidazole-3(2H)-thione]
SKNSH (1 μM), activity in % of control (DβH): 60.7 % of control

OCCc1[nH]c(=S)n2c1[C@@H]1C[C@]1(c1cc(F)ccc1F)C2 [Example 42, (5aS,6aR)-5a-(2,5-difluorophenyl)-1-(2-hydroxyethyl)-5,5a,6,6a-tetrahydrocyclopropa[3,4]pyrrolo[1,2-c]imidazole-3(2H)-thione]
SKNSH (0.1 μM), activity in % of control (DβH): 51.5 % of control | SKNSH (1 μM), activity in % of control (DβH): 8.0 % of control

O=C(O)c1[nH]c(=S)n2c1C[C@@H](c1cc(F)cc(F)c1)C2 [Example 43, (S)-6-(3,5-difluorophenyl)-3-thioxo-3,5,6,7-tetrahydro-2H-pyrrolo[1,2-c]imidazole-1-carboxylic Acid]
SKNSH (1 μM), activity in % of control (DβH): 45.6 % of control

CCOC(=O)Cc1[nH]c(=S)n2c1C1CC1(c1cccs1)C2 (stereo not drawn) [Example 44, Ethyl 2-(5a-(thiophen-2-yl)-3-thioxo-2,3,5,5a,6,6a-hexahydrocyclopropa[3,4]pyrrolo[1,2-c]imidazol-1-yl)acetate]
SKNSH (1 μM), activity in % of control (DβH): 45.9 % of control

O=Cc1[nH]c(=S)n2c1C[C@@H](c1cc(F)cc(F)c1)C2 [Example 45, (S)-6-(3,5-difluorophenyl)-3-thioxo-3,5,6,7-tetrahydro-2H-pyrrolo[1,2-c]imidazole-1-carbaldehyde]
SKNSH (1 μM), activity in % of control (DβH): 46.8 % of control

CS(=O)(=O)Cc1[nH]c(=S)n2c1C[C@@H](c1c(F)c(F)cc(F)c1F)C2 [Example 47, (S)-1-(methylsulfonylmethyl)-6-(2,3,5,6-tetrafluorophenyl)-6,7-dihydro-2H-pyrrolo[1,2-c]imidazole-3(5H)-thione]
SKNSH (1 μM), activity in % of control (DβH): 62.9 % of control

Fc1ccc(F)c([C@]23C[C@H]2c2c(CCc4ccccc4)[nH]c(=S)n2C3)c1 [Example 48, (5aS,6aR)-5a-(2,5-difluorophenyl)-1-phenethyl-5,5a,6,6a-tetrahydrocyclopropa[3,4]pyrrolo[1,2-c]imidazole-3(2H)-thione]
SKNSH (1 μM), activity in % of control (DβH): 48.4 % of control

Fc1ccc(F)c([C@]23C[C@H]2c2c(CCCc4ccccc4)[nH]c(=S)n2C3)c1 [Example 49, (5aS,6aR)-5a-(2,5-difluorophenyl)-1-(3-phenylpropyl)-5,5a,6,6a-tetrahydrocyclopropa[3,4]pyrrolo[1,2-c]imidazole-3(2H)-thione]
SKNSH (1 μM), activity in % of control (DβH): 33.7 % of control

OCc1[nH]c(=S)n2c1[C@@H]1C[C@]1(c1cc(F)cc(F)c1)C2 [Example 50, (5aS,6aR)-5a-(3,5-difluorophenyl)-1-(hydroxymethyl)-5,5a,6,6a-tetrahydrocyclopropa[3,4]pyrrolo[1,2-c]imidazole-3(2H)-thione]
SKNSH (0.1 μM), activity in % of control (DβH): 57.5 % of control | SKNSH (1 μM), activity in % of control (DβH): 1.8 % of control

O=C(O)Cc1[nH]c(=S)n2c1[C@@H]1C[C@]1(c1c(F)ccc(Br)c1F)C2 [Example 51, 2-((5aS,6aR)-5a-(3-bromo-2,6-difluorophenyl)-3-thioxo-2,3,5,5a,6,6a-hexahydrocyclopropa[3,4]pyrrolo[1,2-c]imidazol-1-yl)acetic Acid]
Plasma (0.1 μM), activity in % of control [1]: 5.7 % of control | Plasma (1 μM), activity in % of control [1]: 0 % of control | SKNSH (0.1 μM), activity in % of control (DβH): 0.4 % of control | SKNSH (1 μM), activity in % of control (DβH): 0 % of control

O=C(O)Cc1[nH]c(=S)n2c1[C@@H]1C[C@]1(c1cc(Cl)ccc1F)C2 [Example 52, 2-((5aS,6aR)-5a-(5-chloro-2-fluorophenyl)-3-thioxo-2,3,5,5a,6,6a-hexahydrocyclopropa[3,4]pyrrolo[1,2-c]imidazol-1-yl)acetic Acid]
Plasma (0.1 μM), activity in % of control [1]: 10.3 % of control | Plasma (1 μM), activity in % of control [1]: 1.6 % of control | SKNSH (0.1 μM), activity in % of control (DβH): 9.2 % of control | SKNSH (1 μM), activity in % of control (DβH): 0.2 % of control

O=C(O)Cc1[nH]c(=S)n2c1[C@@H]1C[C@]1(c1cc(F)cc(Cl)c1)C2 [Example 53, 2-((5aS,6aR)-5a-(3-chloro-5-fluorophenyl)-3-thioxo-2,3,5,5a,6,6a-hexahydrocyclopropa[3,4]pyrrolo[1,2-c]imidazol-1-yl)acetic Acid]
Plasma (0.1 μM), activity in % of control [1]: 26.2 % of control | Plasma (1 μM), activity in % of control [1]: 2.7 % of control | SKNSH (0.1 μM), activity in % of control (DβH): 13.4 % of control | SKNSH (1 μM), activity in % of control (DβH): 0 % of control

CCOC(=O)Cc1[nH]c(=S)n2c1[C@@H]1C[C@]1(c1cc(Cl)ccc1F)C2 [Example 54, Ethyl 2-((5aS,6aR)-5a-(5-chloro-2-fluorophenyl)-3-thioxo-2,3,5,5a,6,6a-hexahydrocyclopropa[3,4]pyrrolo[1,2-c]imidazol-1-yl)acetate]
Plasma (0.1 μM), activity in % of control [1]: 32.2 % of control | Plasma (1 μM), activity in % of control [1]: 3.4 % of control | SKNSH (0.1 μM), activity in % of control (DβH): 33.8 % of control | SKNSH (1 μM), activity in % of control (DβH): 4.2 % of control

CCOC(=O)Cc1[nH]c(=S)n2c1[C@@H]1C[C@]1(c1cc(F)cc(Cl)c1)C2 [Example 55, Ethyl 2-((5aS,6aR)-5a-(3-chloro-5-fluorophenyl)-3-thioxo-2,3,5,5a,6,6a-hexahydrocyclopropa[3,4]pyrrolo[1,2-c]imidazol-1-yl)acetate]
Plasma (0.1 μM), activity in % of control [1]: 62.1 % of control | Plasma (1 μM), activity in % of control [1]: 11.1 % of control | SKNSH (0.1 μM), activity in % of control (DβH): 48.9 % of control | SKNSH (1 μM), activity in % of control (DβH): 3.9 % of control

NC(=O)Cc1[nH]c(=S)n2c1[C@@H]1C[C@]1(c1c(F)ccc(Br)c1F)C2 [Example 57, 2-((5aS,6aR)-5a-(3-bromo-2,6-difluorophenyl)-3-thioxo-2,3,5,5a,6,6a-hexahydrocyclopropa[3,4]pyrrolo[1,2-c]imidazol-1-yl)acetamide]
Plasma (0.1 μM), activity in % of control [1]: 18.1 % of control | Plasma (1 μM), activity in % of control [1]: 0.1 % of control | SKNSH (0.1 μM), activity in % of control (DβH): 11.6 % of control | SKNSH (1 μM), activity in % of control (DβH): 0.2 % of control

NC(=O)Cc1[nH]c(=S)n2c1[C@@H]1C[C@]1(c1cc(F)cc(Cl)c1)C2 [Example 58, 2-((5aS,6aR)-5a-(3-chloro-5-fluorophenyl)-3-thioxo-2,3,5,5a,6,6a-hexahydrocyclopropa[3,4]pyrrolo[1,2-c]imidazol-1-yl)acetamide]
Plasma (0.1 μM), activity in % of control [1]: 59.2 % of control | Plasma (1 μM), activity in % of control [1]: 14.0 % of control | SKNSH (0.1 μM), activity in % of control (DβH): 56.8 % of control | SKNSH (1 μM), activity in % of control (DβH): 9.3 % of control
